Measured values: ChEMBL document CHEMBL5149970 (J Med Chem, 2021)

Test: Antiproliferative activity against human EU-1 cells assessed as inhibition of cell growth incubated for 48 hrs by WST assay
Assay type: functional, cell-based
Conditions: EU-1, 48 h

Compound	IC50
Cc1ccc(NS(=O)(=O)c2ccc3c(c2)[C@H]2OCC[C@H]2[C@@H](c2ccc(C(=O)C(C)C)cc2)N3)cc1C	0.3 µM
COC(=O)c1ccc(C2Nc3ccc(S(=O)(=O)Nc4ccc(C)c(C)c4)cc3C3c4ccccc4CC23)cc1 (stereo not drawn)	18.3 µM
Cc1ccc(NS(=O)(=O)c2ccc3c(c2)C2OCCC2C(c2ccc(C(=O)C4CC4)cc2)N3)cc1C (stereo not drawn)	5.2 µM
CC(C)C(=O)c1ccc(C2Nc3ccc(S(=O)(=O)Nc4ccc(Br)c(Br)c4)cc3C3OCCC23)cc1 (stereo not drawn)	5.2 µM
Cc1ccc(NS(=O)(=O)c2ccc3c(c2)C2C=CCC2C(c2ccc(S(C)(=O)=O)cc2)N3)cc1C (stereo not drawn)	6.2 µM
Cc1ccc(NS(=O)(=O)c2ccc3c(c2)C2OCCC2C(c2ccc(C(O)C(C)C)cc2)N3)cc1C (stereo not drawn)	2 µM
Cc1ccc(NS(=O)(=O)c2ccc3c(c2)C2OCCC2C(c2ccc(C(=O)C(C)C)cc2)N3)cc1Cl (stereo not drawn)	1.6 µM
Cc1ccc(NS(=O)(=O)c2ccc3c(c2)C2OCCC2C(c2ccc(C(=O)C4CCCCC4)cc2)N3)cc1C (stereo not drawn)	3.1 µM
